Experimental data published in ChEMBL document CHEMBL1150658, “New ent-kaurane diterpenoids with anti-platelet aggregation activity from Annona squamosa” (2002).

assay: Antiplatelet activity against washed rabbit platelet assessed as inhibition of arachidonic acid-induced platelet aggregation at 200 uM; type: functional; settings: Oryctolagus cuniculus

Q: With C[C@@]12CCC[C@@](C)(C=O)[C@H]1CC[C@@]13C[C@@H](CC[C@H]12)[C@](O)(CO)C3 as the compound, how does the inhibition at 200 µM read?
A: 9.6%

Q: Which inhibition at 200 µM does the source give for C[C@@]12CCC[C@@](C)(C(=O)O)[C@H]1CC[C@]13C[C@@H](CO)[C@H](CC[C@H]12)C3 here?
A: 4.1%

Q: Which inhibition at 200 µM does the source give for C[C@@]12CCC[C@@](C)(C(=O)O)[C@H]1CC[C@@]13C[C@@H](CC[C@H]12)[C@H](C(=O)O)C3 here?
A: 15.4%

Q: For CC(=O)O[C@@]1(CO)C[C@@]23CC[C@H]4[C@@](C)(CCC[C@@]4(C)O)[C@@H]2CC[C@@H]1C3 [ANNOSQUAMOSIN D], which inhibition at 200 µM is on record?
A: 4.9%

Q: With C[C@@]12CCC[C@@](C)(O)[C@H]1CC[C@@]13C[C@@H](CC[C@H]12)[C@@H](C(=O)O)C3 as the compound, how does the inhibition at 200 µM read?
A: 4.5%

Q: For CC(=O)OC[C@]1(O)C[C@@]23CC[C@H]4[C@@](C)(CCC[C@@]4(C)C(=O)O)[C@@H]2CC[C@H]1C3, which inhibition at 200 µM is on record?
A: 10.8%

Q: With C=C1C[C@@]23CC[C@H]4[C@@](C)(CCC[C@@]4(C)C(=O)O)[C@@H]2CC[C@@H]1C3 [KAURENOIC ACID] as the compound, how does the inhibition at 200 µM read?
A: 24.8%

Q: Which inhibition at 200 µM does the source give for C[C@@]12CCC[C@@](C)(C(=O)O)[C@H]1CC[C@@]13C[C@H](CC[C@H]12)[C@@](O)(CO)C3 here?
A: 7.2%

Q: For C[C@@]12CCC[C@@](C)(C=O)[C@H]1CC[C@@]13C[C@@H](CC[C@H]12)[C@@](O)(CO)C3, which inhibition at 200 µM is on record?
A: 0.5%

Q: Which inhibition at 200 µM does the source give for C[C@@]12CCC[C@@](C)(O)[C@H]1CC[C@@]13C[C@H](CC[C@H]12)[C@](O)(CO)C3 [ANNOSQUAMOSIN B] here?
A: 8.7%

Q: For C[C@@]12CCC[C@@](C)(C(=O)O)[C@H]1CC[C@@]13C[C@@H](CC[C@H]12)[C@](O)(CO)C3, which inhibition at 200 µM is on record?
A: 14.9%

Q: Which inhibition at 200 µM does the source give for C[C@@]12CCC[C@@](C)(C=O)[C@H]1CC[C@@]13C[C@@H](CC[C@H]12)[C@@H](C(=O)O)C3 here?
A: 100%

assay: Antiplatelet activity against washed rabbit platelet assessed as inhibition of collagen-induced platelet aggregation at 200 uM; type: functional; settings: Oryctolagus cuniculus

Q: With C[C@@]12CCC[C@@](C)(C=O)[C@H]1CC[C@@]13C[C@@H](CC[C@H]12)[C@](O)(CO)C3 as the compound, how does the inhibition at 200 µM read?
A: 17.6%

Q: With C[C@@]12CCC[C@@](C)(C(=O)O)[C@H]1CC[C@]13C[C@@H](CO)[C@H](CC[C@H]12)C3 as the compound, how does the inhibition at 200 µM read?
A: 23.8%

Q: For C[C@@]12CCC[C@@](C)(C(=O)O)[C@H]1CC[C@@]13C[C@@H](CC[C@H]12)[C@H](C(=O)O)C3, which inhibition at 200 µM is on record?
A: 56.9%

Q: Which inhibition at 200 µM does the source give for CC(=O)O[C@@]1(CO)C[C@@]23CC[C@H]4[C@@](C)(CCC[C@@]4(C)O)[C@@H]2CC[C@@H]1C3 [ANNOSQUAMOSIN D] here?
A: 10.6%

Q: Which inhibition at 200 µM does the source give for C[C@@]12CCC[C@@](C)(O)[C@H]1CC[C@@]13C[C@@H](CC[C@H]12)[C@@H](C(=O)O)C3 here?
A: 30.5%

Q: For CC(=O)OC[C@]1(O)C[C@@]23CC[C@H]4[C@@](C)(CCC[C@@]4(C)C(=O)O)[C@@H]2CC[C@H]1C3, which inhibition at 200 µM is on record?
A: 30.1%

Q: With C=C1C[C@@]23CC[C@H]4[C@@](C)(CCC[C@@]4(C)C(=O)O)[C@@H]2CC[C@@H]1C3 [KAURENOIC ACID] as the compound, how does the inhibition at 200 µM read?
A: 100%

Q: With C[C@@]12CCC[C@@](C)(C(=O)O)[C@H]1CC[C@@]13C[C@H](CC[C@H]12)[C@@](O)(CO)C3 as the compound, how does the inhibition at 200 µM read?
A: 2.3%

Q: For C[C@@]12CCC[C@@](C)(C=O)[C@H]1CC[C@@]13C[C@@H](CC[C@H]12)[C@@](O)(CO)C3, which inhibition at 200 µM is on record?
A: 4.9%

Q: For C[C@@]12CCC[C@@](C)(O)[C@H]1CC[C@@]13C[C@H](CC[C@H]12)[C@](O)(CO)C3 [ANNOSQUAMOSIN B], which inhibition at 200 µM is on record?
A: 21.1%

Q: For C[C@@]12CCC[C@@](C)(C(=O)O)[C@H]1CC[C@@]13C[C@@H](CC[C@H]12)[C@](O)(CO)C3, which inhibition at 200 µM is on record?
A: 8.6%

Q: With C[C@@]12CCC[C@@](C)(C=O)[C@H]1CC[C@@]13C[C@@H](CC[C@H]12)[C@@H](C(=O)O)C3 as the compound, how does the inhibition at 200 µM read?
A: 100%

assay: Antiplatelet activity against washed rabbit platelet assessed as inhibition of platelet activating factor-induced platelet aggregation at 200 uM; type: functional; settings: Oryctolagus cuniculus

Q: For C[C@@]12CCC[C@@](C)(C=O)[C@H]1CC[C@@]13C[C@@H](CC[C@H]12)[C@](O)(CO)C3, which inhibition at 200 µM is on record?
A: 5.5%

Q: Which inhibition at 200 µM does the source give for C[C@@]12CCC[C@@](C)(C(=O)O)[C@H]1CC[C@]13C[C@@H](CO)[C@H](CC[C@H]12)C3 here?
A: 7.4%

Q: With C[C@@]12CCC[C@@](C)(C(=O)O)[C@H]1CC[C@@]13C[C@@H](CC[C@H]12)[C@H](C(=O)O)C3 as the compound, how does the inhibition at 200 µM read?
A: 15.2%

Q: With CC(=O)O[C@@]1(CO)C[C@@]23CC[C@H]4[C@@](C)(CCC[C@@]4(C)O)[C@@H]2CC[C@@H]1C3 [ANNOSQUAMOSIN D] as the compound, how does the inhibition at 200 µM read?
A: 9.3%

Q: Which inhibition at 200 µM does the source give for C[C@@]12CCC[C@@](C)(O)[C@H]1CC[C@@]13C[C@@H](CC[C@H]12)[C@@H](C(=O)O)C3 here?
A: 13.3%

Q: For CC(=O)OC[C@]1(O)C[C@@]23CC[C@H]4[C@@](C)(CCC[C@@]4(C)C(=O)O)[C@@H]2CC[C@H]1C3, which inhibition at 200 µM is on record?
A: 11.1%

Q: With C=C1C[C@@]23CC[C@H]4[C@@](C)(CCC[C@@]4(C)C(=O)O)[C@@H]2CC[C@@H]1C3 [KAURENOIC ACID] as the compound, how does the inhibition at 200 µM read?
A: 12.6%

Q: Which inhibition at 200 µM does the source give for C[C@@]12CCC[C@@](C)(C(=O)O)[C@H]1CC[C@@]13C[C@H](CC[C@H]12)[C@@](O)(CO)C3 here?
A: 8.9%

Q: With C[C@@]12CCC[C@@](C)(C=O)[C@H]1CC[C@@]13C[C@@H](CC[C@H]12)[C@@](O)(CO)C3 as the compound, how does the inhibition at 200 µM read?
A: 10.3%

Q: For C[C@@]12CCC[C@@](C)(O)[C@H]1CC[C@@]13C[C@H](CC[C@H]12)[C@](O)(CO)C3 [ANNOSQUAMOSIN B], which inhibition at 200 µM is on record?
A: 8.5%

Q: For C[C@@]12CCC[C@@](C)(C(=O)O)[C@H]1CC[C@@]13C[C@@H](CC[C@H]12)[C@](O)(CO)C3, which inhibition at 200 µM is on record?
A: 14.4%

Q: Which inhibition at 200 µM does the source give for C[C@@]12CCC[C@@](C)(C=O)[C@H]1CC[C@@]13C[C@@H](CC[C@H]12)[C@@H](C(=O)O)C3 here?
A: 11.8%

assay: Antiplatelet activity against washed rabbit platelet assessed as inhibition of thrombin-induced platelet aggregation at 200 uM; type: functional; settings: Oryctolagus cuniculus

Q: With C[C@@]12CCC[C@@](C)(C=O)[C@H]1CC[C@@]13C[C@@H](CC[C@H]12)[C@](O)(CO)C3 as the compound, how does the inhibition at 200 µM read?
A: 0%

Q: For C[C@@]12CCC[C@@](C)(C(=O)O)[C@H]1CC[C@]13C[C@@H](CO)[C@H](CC[C@H]12)C3, which inhibition at 200 µM is on record?
A: 2.8%

Q: With C[C@@]12CCC[C@@](C)(C(=O)O)[C@H]1CC[C@@]13C[C@@H](CC[C@H]12)[C@H](C(=O)O)C3 as the compound, how does the inhibition at 200 µM read?
A: 6%

Q: With CC(=O)O[C@@]1(CO)C[C@@]23CC[C@H]4[C@@](C)(CCC[C@@]4(C)O)[C@@H]2CC[C@@H]1C3 [ANNOSQUAMOSIN D] as the compound, how does the inhibition at 200 µM read?
A: 2%

Q: With C[C@@]12CCC[C@@](C)(O)[C@H]1CC[C@@]13C[C@@H](CC[C@H]12)[C@@H](C(=O)O)C3 as the compound, how does the inhibition at 200 µM read?
A: 2%

Q: With CC(=O)OC[C@]1(O)C[C@@]23CC[C@H]4[C@@](C)(CCC[C@@]4(C)C(=O)O)[C@@H]2CC[C@H]1C3 as the compound, how does the inhibition at 200 µM read?
A: 8%

Q: Which inhibition at 200 µM does the source give for C=C1C[C@@]23CC[C@H]4[C@@](C)(CCC[C@@]4(C)C(=O)O)[C@@H]2CC[C@@H]1C3 [KAURENOIC ACID] here?
A: 5.6%

Q: For C[C@@]12CCC[C@@](C)(C(=O)O)[C@H]1CC[C@@]13C[C@H](CC[C@H]12)[C@@](O)(CO)C3, which inhibition at 200 µM is on record?
A: 0.4%

Q: With C[C@@]12CCC[C@@](C)(C=O)[C@H]1CC[C@@]13C[C@@H](CC[C@H]12)[C@@](O)(CO)C3 as the compound, how does the inhibition at 200 µM read?
A: 3.2%

Q: With C[C@@]12CCC[C@@](C)(O)[C@H]1CC[C@@]13C[C@H](CC[C@H]12)[C@](O)(CO)C3 [ANNOSQUAMOSIN B] as the compound, how does the inhibition at 200 µM read?
A: 1.6%

Q: For C[C@@]12CCC[C@@](C)(C(=O)O)[C@H]1CC[C@@]13C[C@@H](CC[C@H]12)[C@](O)(CO)C3, which inhibition at 200 µM is on record?
A: 6.8%

Q: With C[C@@]12CCC[C@@](C)(C=O)[C@H]1CC[C@@]13C[C@@H](CC[C@H]12)[C@@H](C(=O)O)C3 as the compound, how does the inhibition at 200 µM read?
A: 6.8%
